From patent publication US11458112B2, “Compositions and methods for inducing defecation” (Dignify Therapeutics, LLC, priority 2019, dated 2022)
Marks after values point to notes of the source that are not given here.

Legend:
[1] = tested on: anesthetized spinal intact rats; test: Rectal pressure (balloon catheter) after intrarectal capsaicin solution in anesthetized spinal intact rats; format: in vivo, rat
Method: (§1) General: In vivo studies were performed in anesthetized, acute spinal cord injured (SCI) rats, anesthetized spinal intact rats, and awake chronic spinal cord injured rats. Adult female and male Sprague Dawley rats (Charles River, N.C.; 250-650 g) were housed at an AAALAC approved facility in cages (1-3/cage) with free access to water and food in a colony room that was maintained on a 12 hr/12 hr light/dark cycle.
(§2) For all rectal contractility studies, animals were anesthetized with urethane (1.0-1.4 g/kg subcutaneous injection). Surgical procedures were then performed with the addition of isoflurane anesthesia (0.05-1.5% in O2) as needed.
(§3) Rectal Contractility: Rectal pressures were measured via a latex balloon catheter (length 1.5-4 cm) inserted (˜4 cm) into the distal rectal region. The catheter was connected to a pressure monitoring system. […] Parameters measured included peak rectal pressure response, duration of time above baseline activity (in the 1st 5 min after drug administration), area under the curve (measured during the 1st 5 min after drug administration) and the number of contractile events after vehicle and drug administration.
(§4) Dosing: Intrarectal capsaicin was administered in a dose range of 0.1-2% wt/vol. Capsaicin was dissolved in 95% ethanol at 50-100 mg/mL and then diluted to 2-20 mg/mL with either saline or water to form a suspension and administered intrarectally as a solution using a micropipette, blunt tip tube (22 G) or as a small solution-soaked cotton ball (3-5 mm diameter). Vehicle doses were prepared using the same concentrations of ethanol in water or saline.
Methods: Capsaicin was administered to anesthetized spinal intact male and female rats (N=4 males and 1 female) instrumented for rectal pressure recording via a balloon catheter inserted into the rectum 2-4 cm from the anus. Capsaicin was administered as 0.2% solution (0.05-0.32 mL of a 2 mg/ml solution in 4.7 or 9.5% ethanol/saline) via a PE50 tube that was inserted into the rectum alongside the balloon catheter. For comparison, vehicle was administered to all rats using the same techniques.
Methods: Capsaicin was administered to an anesthetized spinal intact male rat instrumented for rectal pressure recording via a balloon catheter inserted into the rectum 2-4 cm from the anus. Capsaicin was administered as 0.2% solution (0.2%, 0.25 mL) in ethanol/saline via a PE50 tube that was inserted into the rectum alongside the balloon catheter. Vehicle was administered to all rats using the same techniques. Administration of capsaicin solution is indicated by filled arrow in FIG. 3.

[2] = tested on: anesthetized acute T9-transected SCI rats; test: Rectal pressure after intrarectal capsaicin-soaked cotton ball in anesthetized acute SCI rats; format: in vivo, rat; conditions: cotton ball soaked in 50 uL of 0.2% solution, 2 female rats
Method: as §1
For the acute SCI model, animals were anesthetized with urethane (1.0-1.4 g/kg subcutaneous injection), the skin and muscle on the dorsal side at the level of the thoracic vertebrae were incised, and the spinal cord was carefully exposed by a laminectomy and transected at T8-T10 spinal level. Gelfoam® was placed at the incision site and the muscle and skin overlying the vertebrae were closed with wound clips. The spinal cord was transected at least 60 min before starting the experimental protocol.
as §2, §3
Dosing: Intrarectal capsaicin was administered in a dose range of 0.1-2% wt/vol. […]
Methods: Capsaicin was administered to 2 anesthetized acute T9-transected SCI female rats instrumented for rectal pressure recording via a balloon catheter inserted into the rectum 2-4 cm from the anus. […] Top and bottom traces in FIG. 4 were recorded from separate rats.

conscious cSCI rats = test: Defecation in metabolism cages after intrarectal dosing in conscious chronic spinal cord injured rats; format: in vivo, rat; conditions: for Number of fecal pellets / Total fecal weight: 0.1 mL intrarectal, within 10 min of dosing, N=6, mean + SD
Method: as §1
For chronic SCI model preparation, animals were anesthetized with a mixture of ketamine/xylazine (50-100 mg/kg and 5-10 mg/kg intraperitoneal, respectively), the skin and muscle on the dorsal side at the level of the thoracic vertebrae were incised, and the spinal cord was carefully exposed by a laminectomy and transected at either T3-T4 or T8-T10 spinal level. Gelfoam® was placed at the incision site and the muscle and skin overlying the vertebrae were closed with wound clips. The animal recovered from surgery for 7-10 weeks before being studied.
Defecation in awake animals was monitored in metabolism cages. Animals were habituated to handling and the metabolism cages on 2-4 occasions prior to dosing and were then randomized to a treatment arm. Rats were weighed and placed into metabolism cages for 10 min prior to intrarectal administration of vehicle or capsaicin. The number of fecal pellets and timing of events were recorded by trained personnel that were blinded to treatment. Fecal weight is weighed at 10 and 30 min post dosing. Animals were re-tested 2-3 days later in a cross over design.
as §4
Methods: Defecation in rats was monitored in metabolism cages. Chronic spinal cord injured (cSCI) rats were habituated to handling and the metabolism cages on 2-4 occasions before dosing, then randomized to the treatment arm. Rats were weighed and placed into metabolism cages for 10 min prior to receiving an intrarectal dose of vehicle or capsaicin. Since manual stimulation during intrarectal dosing in conscious rats can induce defecation, the tip of a small cotton swab was inserted into the anus prior to dose administration, to stimulate natural defecation of any fecal pellets that were located in the region of the anal sphincter. […] Once the anal sphincter had ceased contracting/relaxing (15-90 s) a fine catheter (22 G soft/flexible blunt tip catheter) was used to dose the vehicle or capsaicin, as this method produced little manual stimulation. Capsaicin was prepared as a 0.2 or 2% solution (2 or 20 mg/ml in diluted ethanol/water; vehicle corresponding to each dose concentration was 1.9 and 19% ethanol/water, respectively). Dose volumes were 0.1 mL and administered via the catheter inserted ˜1 inch through the anus into the rectum. The number of fecal pellets and timing of events were recorded by trained personnel blinded to the treatment. Fecal weight was recorded at 10 and 30 min post dosing. Animals were re-tested 2-3 days later in a cross over design.

[3] = tested on: healthy subjects and subjects having irritable bowel syndrome (IBS); conditions: concentrations of 0.01% and 0.1%, both groups; cited from earlier work
[4] = 0.2% capsaicin solution intrarectal
[5] = 0.2%, 0.25 mL intrarectal, one male rat (Example 3)

COc1cc(CNC(=O)CCCC/C=C/C(C)C)ccc1O [Capsaicin, 8-methyl-N-vanillyl-6-nonenamide]
response to repeat dosing ([1]; 0.2% capsaicin repeated 20 min after the initial dose): evoked a similar response | duration of rectal pressure increase [1, 4]: 5 min | onset time of rectal pressure increase [1, 4]: 1 to 2 min | rats with transient rectal pressure increase ([1]; 0.2% capsaicin solution intrarectal, 0.05-0.32 mL, N=4 males and 1 female): 5 of 5 | expulsion of rectal balloon catheter [1, 5]: expelled from the rectum through the anus | onset of increase in rectal pressure [1, 5]: ≤ 1 min | duration of rectal pressure increase [2]: < 5 min | onset of rectal pressure increase [2]: < 2 min | rats with capsaicin-induced rectal pressure increase [2]: both rats | number and total weight of fecal pellets expelled compared to vehicle (conscious cSCI rats; 0.2 or 2% intrarectal): significantly increased | time to completion of defecation (conscious cSCI rats; 0.2 or 2% intrarectal): ≤ 10 min | time to defecation (conscious cSCI rats; 0.2 or 2% intrarectal): ≤ 5 min | Number of fecal pellets (conscious cSCI rats; Capsaicin 0.2%): 2.17 + 0.84 ^+ | Total fecal weight (conscious cSCI rats; Capsaicin 0.2%): 1.169 + 0.0489 g | Number of fecal pellets (conscious cSCI rats; Capsaicin 2%): 2.00 + 0.68 ^+ | Total fecal weight (conscious cSCI rats; Capsaicin 2%): 1.265 + 0.414 * g | defecation between 10-30 min post-dosing (conscious cSCI rats; any group): No defecation was observed | reported sensations following intrarectal administration [3]: discomfort and “an urge to defecate”, but not defecation
